B16 tumor growth data for 1 molecule are collected here from patent publication US20240000741A1, “ALL-TRANS RETINOIC ACID ENHANCES RADIOTHERAPY AND OVERCOMES IMMUNE SUPPRESSION FOR CANCER THERAPY” (The University of Chicago, priority 2022, published 2024).

In this experiment the test system is B16 melanoma tumor model. The experiment in a line: B16 melanoma tumor growth after IR and RA. The class given is in vivo, mouse. The conditions noted are these: IR and RA combination compared with single treatments. The procedure: 1×10^6 MC38, B16/F1, Renca or CT26 cells were subcutaneously implanted into flanks of mice. Tumors were irradiated using a Phillips IR250 orthovoltage X-ray generator (Phillips, Amsterdam, the Netherlands) operating at 250 kV 15 mA. Subcutaneous local tumors were irradiated by shielding bodies with a cylindrical lead cover with only flank tumors exposed for radiation. ATRA (400 μg/mice/day) was administered by oral gavage for 10 days. For the two-tumor model, 1×10^6 and 0.7×10^6 MC38 cells were subcutaneously implanted into the right and left flank of mice respectively. […] Tumors were measured along two diameters (length and width) and depth twice weekly and volumes were calculated as length×width×depth/2. For CD8 and CD4 T cell depletion experiments, 200 μg antibodies were injected i.p. on day 0, 2, 5 and 8 after radiation. Anti-CD11b antibody was injected i.p. every two days starting 1 day before radiation. Anti-PD-L1 antibody was administered i.p. on day 0, 3, and 7 after radiation at 200 μg/mouse. Anti-IFN-γ was administered i.p. at 500 μg/mouse every 7 days. Anti-NK1.1 antibody was administered via i.p. at 25 μg/mouse every 3 days for 3 doses. Anti-GM-CSF antibody was given by i.p. injection at 250 μg/mouse every 2 days. FTY720 was delivered via gavage at 20 μg per dose every day for 7 days. […]

For the molecule `CC1=C(/C=C/C(C)=C/C=C/C(C)=C/C(=O)O)C(C)(C)CCC1` [RA, all-trans retinoic acid], the B16 tumor growth result is on record as “significant benefit”.
